System: primary cultures of neonatal cortical neurons exposed to 5 μM Aβ25-35
Assay: Protection of cortical neurons against Aβ25-35-induced cell death (MTT reduction analysis)
Assay type: cell-based, rat
Conditions: for cell death (%): then 5 μM Aβ25-35 for 40 h, MTT, mean ± S.D., three experiments; for protected neurons from Aβ damage by: 5 μM Aβ
Procedure: In this study, primary cultures of neonatal cortical neurons from the cerebral cortex of Harlan Sprague-Dawley rat pups at postnatal day were used as target cells. Primary cultures of neonatal cortical neurons were prepared from the cerebral cortex of Harlan Sprague-Dawley rat pups at postnatal day 1. Briefly, each pup was decapitated and the cortex was digested in 0.5 mg/mL papain at 37° C. for 15 min. The tissue was dissociated in Hibernate A medium (containing B27 supplement) by aspirating trituration to separate cells. Cells were plated (at the density of 5×10^4 cells/cm^2) onto poly-D-lysine-coated dishes and maintained in Neurobasal medium containing B27 supplement, 10 units/mL penicillin, […], and 0.5 mg/mL glutamine (5% CO2/9% O2) for 3 days. Cells were then exposed to cytosine-β-D-arabinofuranoside (5 μM) for 1 day to inhibit proliferation of non-neuronal cells. The cells were used for the experiment on the fifth day.
The effects of isolated pure compounds on Aβ25-35-treated cell apoptosis were determined by a MTT method for evaluating neuroprotective activity. The mitochondrial dehydrogenase activity was assayed by reduction cleavage of the tetrazolium salt MTT (3-[4,5-dimethylthiazol-2-yl]-2,5-diphenyltetrazolium bromide), to yield a purple dye with absorbance read at about 570 nm. Results are expressed as percentage of control absorbance. Cortical neurons prepared as described above were incubated with vehicle (0.1% DMSO) or various concentrations of the compounds for 2 h then exposed to 5 μM Aβ for 40 h. The cell viability was assessed by MTT reduction analysis. Cells were incubated with minimum essential medium containing 0.5 mg/mL MTT for 1 h. The medium was aspirated, and the formazan particle was dissolved with DMSO. The absorbance at 600 nm was measured using an enzyme-linked immunosorbent assay reader. Results are expressed as means±S.D. and were analyzed by ANOVA with post hoc multiple comparison with a Bonferroni test.

Compound | cell death (%) (compound 1 μM for 2 h) | cell death (%) (compound 5 μM for 2 h) | cell death (%) (compound 10 μM for 2 h) | cell death (%) (compound 20 μM for 2 h) | protected neurons from Aβ damage by (at concentration of 10 μM) [%] | protected neurons from Aβ damage by (at concentration of 5 μM) [%] | protected neurons from Aβ damage by (at concentration of 20 μM) [%]
Ac-DEVD-CHO [reference compound] | 35.8 ± 3.5 | 30.2 ± 5.5 | 24.5 ± 4.6 | 23.1 ± 1.6 | – | – | –
C=C1CC[C@@H]2[C@](C)(CC[C@H](O)[C@]2(C)CO)[C@H]1/C=C/C1CCOC1=O (stereo partly drawn) [Compound 3, 13-epi-3β,19-dihydroxylabda-8(17), 11E-dien-16,15-olide] | 45.1 ± 3.5 | 39.6 ± 3.4 | 36.7 ± 8.7 | 29.3 ± 10.6 | 36.7 | – | –
C=C1CCC2[C@@](C)(CO)CCC[C@]2(C)[C@H]1CCC1CCOC1=O (some centres unmarked) [Compound 1, 19-hydroxylabda-8(17)-en-16,15-olide] | 34.4 ± 3.4 | 25.3 ± 5.7 | 28.1 ± 5.7 | 30.8 ± 5.0 | – | 25.3 | –
C=C1CC[C@@H]2[C@](C)(CC[C@H](O)[C@]2(C)CO)[C@H]1/C=C/[C@@H]1CCOC1=O [Compound 2, 3β,19-dihydroxylabda-8(17), 11E-dien-16,15-olide] | 43.8 ± 9.5 | 34.9 ± 2.6 | 29.5 ± 6.4 | 26.3 ± 9.4 | 29.5 | – | –
C=C1CC[C@H]2[C@@](C)(CO)CCC[C@]2(C)[C@H]1CCC1=CCOC1=O [Compound 4, 19-hydroxylabda-8(17),13-dien-16,15-olide] | 41.2 ± 3.4 | 34.8 ± 3.2 | 28.9 ± 8.1 | 32.6 ± 7.2 | 28.9 | – | –
C=C1CCC2C(C)(CO)C(O)CCC2(C)C1C=CC1=CCOC1=O (centres unmarked) [Compound 5, 14-deoxy-11,12-didehydroandrographolide] | 40.7 ± 3.3 | 35.7 ± 1.9 | 30.8 ± 5.7 | 29.5 ± 5.0 | – | – | 29.5

Source: patent publication US7745647B2, “Diterpenes from the fruiting body of Antrodia camphorata and pharmaceutical compositions thereof” (Kang Jian Biotech Corp, Ltd., priority 2006, dated 2010)
